These results are taken from patent US4250176A, “Piperazine derivatives” (priority 1979, dated 1981).

SMILES strings stand for the structures. Converted amounts (≈) assume the structure as drawn. Counter-ions that a name gives are not always drawn.

The subject of experiment [1] is Guinea-pig ileum strips, histamine-induced contraction. In words: Anti-histamine activity in "vitro": histamine-induced spasms of guinea-pig ileum strips. It is filed as cell-based. As to conditions: Cavia porcellus, 5 min; Table I-a; histamine 0.5 mg/liter, 5 minutes incubation; concentration giving significant inhibition (50%) of the contraction; read-out: Histamine in "vitro" (ileum) effective conc. As to the method:
The histamine--(0.5 mg/liter) induced spasms are recorded Kymographically with an isotonic lever giving a 5-fold magnification.

Experiment [2] deals with histamine paw oedema in guinea pigs. In words: Histamine paw oedema in guinea pigs. As to conditions: Cavia porcellus; Table I-a; oral dose giving paw reaction below 10 units 10 minutes after 50 μg histamine s.p., 2 hours after dosing; read-out: Anaphylaxis in guinea pigs oral effective dose in mg/kg: Histamine oedema. The experiment is classed as in vivo, guinea pig. In short, it runs like this:
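Guinea pigs of 400–500 g were dosed orally with compound or saline 24 h after subplantar ovalbumin antiserum sensitisation in the left hind paw. Two hours after dosing, histamine 50 μg was injected subplantar into the right hind paw to induce oedema.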

In experiment [3] the test system is Guinea pigs sensitized to ovalbumin (anaphylactic shock). The experiment can be described thus: Anaphylaxis in guinea pigs: protection against death after ovalbumin challenge (survival). It is filed as in vivo, guinea pig. The conditions noted are these: Cavia porcellus; Table I-a; estimated ED50, oral; protection against death after i.v. 0.6 mg ovalbumin; read-out: Anaphylaxis in guinea pigs oral effective dose in mg/kg: Survival. An outline of the steps: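 Guinea pigs (400–500 g) sensitized by subplantar ovalbumin antiserum, dosed orally 24 h later. ED50 is the oral dose protecting 50% of animals from death.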

`O=c1[nH]c2ccccc2n1CCCCCN1CCN(C(c2ccccc2)c2ccccc2)CC1` [I-a: L=H, R1=H, R2=H, (CH2)5, R6=H, R7=H, 1-{5-[4-(diphenylmethyl)-1-piperazinyl]pentyl-1,3-dihydro-2H-benzimidazol-2-one dihydrochloride.hydrate]: the IC50 in experiment [1] turned out to be 0.01 µg/mL. In experiment [2], the minimal effective dose worked out at 2.5 mg/kg. In addition, the ED50 in experiment [3] is 0.63 mg/kg.
`Cc1ccc(C(c2ccc(F)cc2)N2CCN(CCCn3c(=O)[nH]c4ccccc43)CC2)cc1` (stereo not drawn) [1-[3-{4-[(4-fluorophenyl)-(4-methylphenyl)methyl]-1-piperazinyl}propyl]-1,3-dihydro-2H-benzimidazol-2-one]: the IC50 in experiment [1] was found to be 0.16 µg/mL (≈ 0.349 µM). For the same compound, the minimal effective dose in experiment [2] was under 2.5 mg/kg. For the same compound, the ED50 in experiment [3] was under 2.5 mg/kg.
